Where two headings read alike, the source gives them in different places.
What was measured:
[1] = target: T1, West Nile Virus (WNV) NS2B-NS3 protease (West Nile virus, UniProt Q9Q6P4); experiment: WNV protease inhibition assay; assay type: biochemical; conditions: Table 4; letter codes for IC50
T1 construct: NS2B1423-1470); purchased R&D 2907-SE-020
Source text: WNV protease inhibition assay

ZIKV replicon = experiment: ZIKV replication inhibition assay (NanoLuc replicon in Vero cells); conditions: Zika virus, Vero, 72 h
[2] = read-out: ZIKA Cell_Nanoluc, Vero cells with stable ZIKV replicon, 72 h, Nano-Glo readout

T1 sequence (Q9Q6P4 1423-1470): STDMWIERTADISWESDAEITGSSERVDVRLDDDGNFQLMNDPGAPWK
T1 sequence (Q9Q6P4 1506-1689): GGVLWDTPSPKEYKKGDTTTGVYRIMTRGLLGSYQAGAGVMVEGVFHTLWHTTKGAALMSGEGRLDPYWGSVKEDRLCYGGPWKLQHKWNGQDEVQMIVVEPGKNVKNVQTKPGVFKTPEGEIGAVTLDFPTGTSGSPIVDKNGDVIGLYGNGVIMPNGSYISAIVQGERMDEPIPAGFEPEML

| Structure (SMILES) | IC50 [1] | EC50 (ZIKV replicon; read-out: ZIKA Cell_Nanoluc) | EC50 (ZIKV replicon; [2]) |
| --- | --- | --- | --- |
| CN(C)C[C@H]1CC[C@H]([n+]2cc([N-]C(=O)Nc3cc(NC(=O)Cc4cccc(CN)c4)cc(C(F)(F)F)c3)on2)CC1 [Example 163, ((3-(2-(3-(Aminomethyl)phenyl)acetamido)-5-(trifluoromethyl)phenyl)carbamoyl)(3-((1R,4R)-4-((dimethylamino)methyl)cyclohexyl)-1,2,3-oxadiazol-3-ium-5-yl)amide] | 100 to 1000 nM | 1000 to 20000 nM |  |
| CC(C(=O)Nc1cc(NC(=O)[N-]c2c[n+]([C@H]3CC[C@H](CN(C)C)CC3)no2)cc(C(F)(F)F)c1)c1ccccc1 (stereo partly drawn) [Example 164, (3-((1R,4R)-4-((Dimethylamino)methyl)-cyclohexyl)-1,2,3-oxadiazol-3-ium-5-yl)((3-(2-phenylpropanamido)-5-(trifluoromethyl)phenyl)-carbamoyl)amide] | < 100 nM | 100 to 1000 nM |  |
| CCC(C(=O)Nc1cc(NC(=O)[N-]c2c[n+]([C@H]3CC[C@H](CN(C)C)CC3)no2)cc(C(F)(F)F)c1)c1ccccc1 (stereo partly drawn) [Example 165, (3-((1R,4R)-4-((Dimethylamino)methyl)-cyclohexyl)-1,2,3-oxadiazol-3-ium-5-yl)((3-(2-phenylbutanamido)-5-(trifluoromethyl)phenyl)-carbamoyl)amide] | 100 to 1000 nM | 100 to 1000 nM |  |
| CN(C)C[C@H]1CC[C@H]([n+]2cc([N-]C(=O)Nc3cc(NC(=O)Cc4ccccc4C(F)(F)F)cc(C(F)(F)F)c3)on2)CC1 [Example 166, (3-((1R,4R)-4-((Dimethylamino)methyl)-cyclohexyl)-1,2,3-oxadiazol-3-ium-5-yl)((3-(trifluoromethyl)-5-(2-(2-(trifluoromethyl)-phenyl)acetamido)phenyl)carbamoyl)amide] | 100 to 1000 nM | 1000 to 20000 nM |  |
| CC(C(=O)N(C)c1cc(NC(=O)[N-]c2c[n+]([C@H]3CC[C@H](CN(C)C)CC3)no2)cc(C(F)(F)F)c1)c1ccccc1 (stereo partly drawn) [Example 167, (3-((1R,4R)-4-((Dimethylamino)methyl)-cyclohexyl)-1,2,3-oxadiazol-3-ium-5-yl)((3-(N-methyl-2-phenylpropanamido)-5-(trifluoromethyl)phenyl)carbamoyl)amide] | 100 to 1000 nM | 1000 to 20000 nM |  |
| CN(C)C[C@H]1CC[C@H]([n+]2cc([N-]C(=O)Nc3cc(NC(=O)Cc4ccccc4Cl)cc(C(F)(F)F)c3)on2)CC1 [Example 168, ((3-(2-(2-Chlorophenyl)acetamido)-5-(trifluoromethyl)phenyl)carbamoyl)(3-((1R,4R)-4-((dimethylamino)methyl)cyclohexyl)-1,2,3-oxadiazol-3-ium-5-yl)amide] | < 100 nM | 100 to 1000 nM |  |
| CN(C)C[C@H]1CC[C@H]([n+]2cc([N-]C(=O)Nc3cc(NC(=O)Cc4cccc(F)c4F)cc(C(F)(F)F)c3)on2)CC1 [Example 169, ((3-(2-(2,3-Difluorophenyl)acetamido)-5-(trifluoromethyl)phenyl)carbamoyl)(3-((1R,4R)-4-((dimethylamino)methyl)cyclohexyl)-1,2,3-oxadiazol-3-ium-5-yl)amide] | < 100 nM | 100 to 1000 nM |  |
| C[C@H](C(=O)Nc1cc(NC(=O)[N-]c2c[n+]([C@H]3CC[C@H](CN(C)C)CC3)no2)cc(C(F)(F)F)c1)c1ccccc1 [Example 170, (3-((1R,4S)-4-((Dimethylamino)methyl)-cyclohexyl)-1,2,3-oxadiazol-3-ium-5-yl)((3-((S)-2-phenylpropanamido)-5-(trifluoromethyl)-phenyl)carbamoyl)amide] | < 100 nM | 100 to 1000 nM |  |
| Cc1ccccc1CC(=O)Nc1cc(NC(=O)[N-]c2c[n+]([C@H]3CC[C@H](CN(C)C)CC3)no2)cc(C(F)(F)F)c1 [Example 171, (3-((1R,4R)-4-((Dimethylamino)methyl)-cyclohexyl)-1,2,3-oxadiazol-3-ium-5-yl)((3-(2-(o-tolyl)acetamido)-5-(trifluoromethyl)phenyl)-carbamoyl)amide] | < 100 nM | 100 to 1000 nM |  |
| CN(C)C[C@H]1CC[C@H]([n+]2cc([N-]C(=O)Nc3cc(N(C)C(=O)Cc4ccccc4)cc(C(F)(F)F)c3)on2)CC1 [Example 172, (3-((1R,4R)-4-((Dimethylamino)methyl)-cyclohexyl)-1,2,3-oxadiazol-3-ium-5-yl)((3-(N-methyl-2-phenylacetamido)-5-(trifluoromethyl)-phenyl)carbamoyl)amide] | 100 to 1000 nM | 1000 to 20000 nM |  |
| CN(C)[C@@H]1CCC[C@@H]([n+]2cc([N-]C(=O)Nc3cc(NC(=O)Cc4ccccc4)cc(C(F)(F)F)c3)on2)C1 [Example 173, (3-((1R,3R)-3-(Dimethylamino)cyclohexyl)-1,2,3-oxadiazol-3-ium-5-yl)((3-(2-phenylacetamido)-5-(trifluoromethyl)phenyl)-carbamoyl)amide] | < 100 nM |  | 100 to 1000 nM |
| CN(C)[C@H]1CCC[C@@H]([n+]2cc([N-]C(=O)Nc3cc(NC(=O)Cc4ccccc4)cc(C(F)(F)F)c3)on2)C1 [Example 174, (3-((1R,3S)-3-(Dimethylamino)cyclohexyl)-1,2,3-oxadiazol-3-ium-5-yl)((3-(2-phenyl-acetamido)-5-(trifluoromethyl)phenyl)-carbamoyl)amide] | 100 to 1000 nM |  | 1000 to 20000 nM |
| C[C@@H](C(=O)Nc1cc(NC(=O)[N-]c2c[n+]([C@H]3CC[C@H](CN(C)C)CC3)no2)cc(C(F)(F)F)c1)c1ccccc1 [Example 175, (3-((1R,4R)-4-((Dimethylamino)methyl)-cyclohexyl)-1,2,3-oxadiazol-3-ium-5-yl)((3-((R)-2-phenylpropanamido)-5-(trifluoromethyl)-phenyl)carbamoyl)amide] | < 100 nM | 1000 to 20000 nM |  |
| CN(C)C[C@H]1CC[C@H]([n+]2cc([N-]C(=O)Nc3cc(NC(=O)Cc4cccc(Cl)c4)cc(C(F)(F)F)c3)on2)CC1 [Example 176, ((3-(2-(3-Chlorophenyl)acetamido)-5-(trifluoromethyl)phenyl)carbamoyl)(3-((1R,4R)-4-((dimethylamino)methyl)cyclohexyl)-1,2,3-oxadiazol-3-ium-5-yl)amide] | 100 to 1000 nM | 1000 to 20000 nM |  |
| CN(C)C[C@H]1CC[C@H]([n+]2cc([N-]C(=O)Nc3cc(NC(=O)C4CCCc5ccccc54)cc(C(F)(F)F)c3)on2)CC1 (stereo partly drawn) [Example 177, (3-((1R,4R)-4-((Dimethylamino)methyl)-cyclohexyl)-1,2,3-oxadiazol-3-ium-5-yl)((3-(1,2,3,4-tetrahydronaphthalene-1-carboxamido)-5-(trifluoromethyl)phenyl)carbamoyl)amide] | 100 to 1000 nM | 1000 to 20000 nM |  |
| O=C([N-]c1c[n+](C[C@H]2CC[C@@H](c3cncnc3)CC2)no1)Nc1cccc(C(F)(F)F)c1 [Example 179, (3-(((1S,4S)-4-(Pyrimidin-5-yl)cyclohexyl)-methyl)-1,2,3-oxadiazol-3-ium-5-yl)((3-(trifluoromethyl)phenyl)carbamoyl)amide] | 1000 to 20000 nM | 1000 to 20000 nM |  |
| O=C([N-]c1c[n+](C[C@H]2CC[C@@H](c3cncnc3)CC2)no1)Nc1ccnc(C(F)(F)F)c1 [Example 182, (3-(((1S,4S)-4-(Pyrimidin-5-yl)cyclohexyl)methyl)-1,2,3-oxadiazol-3-ium-5-yl)((2-(trifluoromethyl)pyridin-4-yl)carbamoyl)amide] | 100 to 1000 nM | 1000 to 20000 nM |  |
